From patent US20260216238A1, “TETRATHIOMOLYBDIC ACID FOR USE IN TREATING COPPER METABOLISM-ASSOCIATED DISEASES OR DISORDERS (WILSON DISEASE)” (Alexion Pharmaceuticals, Inc., priority 2023, published 2026)
Read-outs that look alike come from different tables or passages of the source.

Assays:
[1] = system: patients with Wilson disease (WD); assay: Study 301: daily mean AUEC of plasma directly measured non-ceruloplasmin-bound copper (dNCC), copper mobilization; format: in vivo, human; settings: for Mean Daily dNCC AUEC0-48 w, LSM: ANCOVA; for Mean Daily dNCC AUEC0-48 w, LSM / Mean Daily dNCC AUEC0-48 w, Mean: multiple imputation; for Mean Daily dNCC AUEC0-48 w, Mean: Full Analysis Set; for Mean Daily dNCC AUEC0-48 w, Between Group LSM Diff / Mean Daily dNCC AUEC0-48 w, Within Group LSM: lower block of Table 5
Text: FIG. 1 provides a schematic view of the study design. […] This study is referred throughout as Study 301.
The primary endpoint integrated copper mobilization and sequestration (i.e., copper control) throughout the 48-week Primary Treatment Period by assessment of daily mean area under the effect-time curve (AUEC) of directly measured non-ceruloplasmin-bound copper (dNCC) concentration. […] Measurement of dNCC in plasma is highly sensitive and accurate, requiring no special formulas or assumptions. As proposed, dNCC AUEC0-48 W is an indirect measure of copper mobilization and sequestration.
(§1) This assessment is also applicable to SoC treatments. In addition, plasma Cp, CpC, plasma total copper, and LBC were measured with AUEC calculated for plasma total copper and LBC.
The AUEC for dNCC concentration was calculated using the trapezoidal rule, and then divided by number of days to yield a mean daily AUEC plasma dNCC concentration from baseline to Week 48 (expressed as μmol/L and described as AUEC0-48 W).
Tests were performed at a significance level of 0.05 (2-sided).

[2] = system: patients with Wilson disease (WD)
Protocol: as §1
The LBC method measures exchangeable plasma copper that is not bound to either Cp or TPC.
Pharmacodynamics: Blood samples were collected to directly measure plasma total copper, PUF copper, dNCC, and LBC. Calculations may be performed for cNCC and cNCCcorrected, the latter of which is non-ceruloplasmin-bound and non-molybdenum-albumin-bound copper.

participants with WD = settings: for Daily Net Copper Balance, Change from Baseline, Mean: Table 10; for Decrease from Baseline in Average Daily Net Copper Balance, Mean (SD): Table 13
Protocol: Study 204 is registered with ClinicalTrials.gov, number NCT04573309, and is described in Example 1 of U.S. Provisional Patent Application No. 63/237,120, filed Aug. 25, 2021, and incorporated by reference herein. […] The participants remained on a Cu-controlled diet, and Cu and Mo balance were measured on all intake (i.e., investigational agent, food and fluids) and all output (urine and feces). The Cu and Mo concentration of each sample was determined by inductively coupled plasma mass spectrometry (ICP-MS). Copper and Mo content of all intake and output was calculated based on the volume or weight of intake and output and the concentration of representative samples.
Collection periods for feces and urine varied in duration from 3 to 15 days to support assessment of both Cu and Mo balance before and at steady state for both 15 mg and 30 mg. Equilibration periods on Cu/Mo-controlled diets were a minimum of 48 hours. Copper balance was calculated as the mean daily Cu balance over each of the 4 collection periods. The interpretation of Cu balance was based on the criteria previously established when undertaking Cu balance studies with zinc treatment.
These participants had all intake (food and drink) and output (urine and feces) collected from Day −4 through Day −1 (baseline), from Day 1 through Day 8, and Day 25 through Day 39.

[3] = system: patients with Wilson disease (WD); settings: in vivo
[4] = system: patients with Wilson disease (WD); settings: FIG. 23; TTM versus SoC chelator therapy
Text: Urine samples were collected for analysis of urine copper and molybdenum.

[5] = Days 1-8 (Accumulation 15 mg/day)
[6] = Days 25-28 (Steady State 15 mg/day)
[7] = Days 31-35 (Accumulation 30 mg/day)
[8] = Days 36-39 (Steady State 30 mg/day)

## bis-choline tetrathiomolybdate [TTM]
[1]; Cohort 1
  Mean Daily dNCC AUEC0-48 w, LSM Diff (TTM-SoC): 1.64 µmol/L
  Mean Daily dNCC AUEC0-48 w, LSM: 2.50 µmol/L
  Mean Daily dNCC AUEC0-48 w, Mean: 2.68 µmol/L
  Mean Daily dNCC AUEC0-48 w, Between Group LSM Diff: 1.72 µmol/L
  Mean Daily dNCC AUEC0-48 w, Within Group LSM: 2.59 µmol/L
[1]; Cohort 2
  Mean Daily dNCC AUEC0-48 w, LSM Diff (TTM-SoC): 3.79 µmol/L
  Mean Daily dNCC AUEC0-48 w, LSM: 4.76 µmol/L
  Mean Daily dNCC AUEC0-48 w, Mean: 4.58 µmol/L
  Mean Daily dNCC AUEC0-48 w, Between Group LSM Diff: 3.68 µmol/L
  Mean Daily dNCC AUEC0-48 w, Within Group LSM: 4.64 µmol/L
[1]; Overall
  Mean Daily dNCC AUEC0-48 w, LSM Diff (TTM-SoC): 2.18 µmol/L
  Mean Daily dNCC AUEC0-48 w, LSM: 3.18 µmol/L
  Mean Daily dNCC AUEC0-48 w, Mean: 3.12 µmol/L
  Mean Daily dNCC AUEC0-48 w, Between Group LSM Diff: 2.12 µmol/L
  Mean Daily dNCC AUEC0-48 w, Within Group LSM: 3.06 µmol/L
[1]; W0-W48, cohort 1 incomplete response or intolerant to prior SoC, p<0.0001
  dNCC area under the effect curve, LSM difference (SE) TTM versus SoC: 1.64 (0.297)
[2]; Adolescent
  AUEC(0-48 week) LBC, Mean: 1.5 mmol/L
  AUEC(0-48 week) LBC, Median: 1.2 mmol/L
  AUEC(0-48 week) PTC (plasma total copper), Mean: 7.5 mmol/L
  AUEC(0-48 week) PTC (plasma total copper), Median: 5.4 mmol/L
  AUEC(0-48 week) dNCC, Mean: 2.7 mmol/L
  AUEC(0-48 week) dNCC, Median: 2.3 mmol/L
[2]; Adult
  AUEC(0-48 week) LBC, Mean: 1.8 mmol/L
  AUEC(0-48 week) LBC, Median: 1.2 mmol/L
  AUEC(0-48 week) PTC (plasma total copper), Mean: 7.8 mmol/L
  AUEC(0-48 week) PTC (plasma total copper), Median: 7.3 mmol/L
  AUEC(0-48 week) dNCC, Mean: 3.2 mmol/L
  AUEC(0-48 week) dNCC, Median: 2.2 mmol/L
Participants with WD; [5]
  Daily Net Copper Balance, Change from Baseline, Median: -0.4291 mg
  Daily Net Copper Balance, Value, Median: 0.6678 mg
  Increase from Baseline in Average Daily Fecal Copper Excretion, Mean: 0.3278 mg
  Increase from Baseline in Average Daily Urine Copper Excretion, Mean: -0.0108 mg
  Daily Net Copper Balance, Change from Baseline, Mean: -0.4848 mg
  Decrease from Baseline in Average Daily Net Copper Balance, Mean (SD): −0.4848(0.119) mg
Participants with WD; Days 1-8 (Accumulation 15 mg/day), N=3
  Daily Net Copper Balance, Value, Mean: 0.7654 mg
Participants with WD; Days 1-39
  Decrease from Baseline in Average Daily Net Copper Balance, Mean (SD): −0.448 (0.1469) mg
Participants with WD; [6]
  Daily Net Copper Balance, Change from Baseline, Median: -0.1459 mg
  Daily Net Copper Balance, Value, Mean: 0.7638 mg
  Daily Net Copper Balance, Value, Median: 1.1434 mg
  Increase from Baseline in Average Daily Fecal Copper Excretion, Mean: 0.4931 mg
  Increase from Baseline in Average Daily Urine Copper Excretion, Mean: 0.1042 mg
  Daily Net Copper Balance, Change from Baseline, Mean: -0.4865 mg
  Decrease from Baseline in Average Daily Net Copper Balance, Mean (SD): −0.6381 (0.7673) mg
Participants with WD; [7]
  Daily Net Copper Balance, Change from Baseline, Median: -0.3707 mg
  Daily Net Copper Balance, Value, Mean: 0.8577 mg
  Daily Net Copper Balance, Value, Median: 0.8312 mg
  Increase from Baseline in Average Daily Fecal Copper Excretion, Mean: 0.3879 mg
  Increase from Baseline in Average Daily Urine Copper Excretion, Mean: 0.0744 mg
  Daily Net Copper Balance, Change from Baseline, Mean: -0.3925 mg
  Decrease from Baseline in Average Daily Net Copper Balance, Mean (SD): −0.3925 (0.05781) mg
Participants with WD; [8]
  Daily Net Copper Balance, Change from Baseline, Median: -0.4225 mg
  Daily Net Copper Balance, Value, Mean: 0.8582 mg
  Daily Net Copper Balance, Value, Median: 0.7986 mg
  Increase from Baseline in Average Daily Fecal Copper Excretion, Mean: 0.0899 mg
  Increase from Baseline in Average Daily Urine Copper Excretion, Mean: 0.1042 mg
  Daily Net Copper Balance, Change from Baseline, Mean: -0.3921 mg
  Decrease from Baseline in Average Daily Net Copper Balance, Mean (SD): −0.2765 (0.3138) mg
[3]
  ALT increased AE, % participants: 14.6%
  ALT increased AE, E events: 25
  ALT increased AE, N participants: 20
  ALT increased adverse event: 14.6%
  AST increased AE, % participants: 2.9%
  AST increased AE, E events: 4
  AST increased AE, N participants: 4
  GGT increased AE, % participants: 2.2%
  GGT increased AE, E events: 3
  GGT increased AE, N participants: 3
  Hepatic enzyme increased AE, N participants: 3
  Hepatic function abnormal AE, % participants: 2.2%
  Hepatic function abnormal AE, E events: 3
  Hepatic function abnormal AE, N participants: 3
  Hyperbilirubinemia AE, % participants: 0.7%
  Hyperbilirubinemia AE, E events: 1
  Hyperbilirubinemia AE, N participants: 1
  Hypertransaminasemia AE, % participants: 1.5%
  Hypertransaminasemia AE, E events: 4
  Hypertransaminasemia AE, N participants: 2
  Jaundice AE, % participants: 0.7%
  Jaundice AE, E events: 1
  Jaundice AE, N participants: 1
  LFT abnormal AE, % participants: 1.5%
  LFT abnormal AE, E events: 2
  LFT abnormal AE, N participants: 2
  LFT increased AE, % participants: 2.9%
  LFT increased AE, E events: 4
  LFT increased AE, N participants: 4
  Liver disorder AE, % participants: 0.7%
  Liver disorder AE, E events: 1
  Liver disorder AE, N participants: 1
  participants with ALT>3×ULN but≤5×ULN: 10.2%
  participants with ALT>5×ULN but≤10×ULN: 7.3%
  participants with ALT>10×ULN but≤20×ULN: 0.7%
  participants with ALT>20×ULN: 2.9%
  participants with post-baseline elevation of ALT ≥3× ULN: 29 participants
[4]
  24-hour urinary copper: lower with TTM than SoC chelator therapy
